Measured values: ChEMBL document CHEMBL1146281, “Synthesis and evaluation of peptidic maleimides as transglutaminase inhibitors” (Bioorg Med Chem Lett, 2007)

Species: Cavia porcellus
Assay: Ratio of Kinactivation to KI of guinea pig recombinant liver TGase expressed in Escherichia coli

Compound	Ratio [mM⁻¹ min⁻¹]
O=C(N[C@@H](CCCCN1C(=O)C=CC1=O)C(=O)OCc1ccccc1)OCc1ccccc1	17.1
COC(=O)CNC(=O)[C@H](CCN1C(=O)C=CC1=O)NC(=O)OCc1ccccc1	0.28
COC(=O)CNC(=O)[C@H](CCCN1C(=O)C=CC1=O)NC(=O)OCc1ccccc1	0.43
COC(=O)CNC(=O)[C@H](CCCCN1C(=O)C=CC1=O)NC(=O)OCc1ccccc1	0.83

Next, values leading:

Ratio [mM⁻¹ min⁻¹]	Compound
0.67	O=C(N[C@@H](CCN1C(=O)C=CC1=O)C(=O)OCc1ccccc1)OCc1ccccc1
6.26	O=C(N[C@@H](CCCN1C(=O)C=CC1=O)C(=O)OCc1ccccc1)OCc1ccccc1
